Data published in patent publication US11214594B2, “Antimicrobial peptide having synergistic antibacterial effect with antibiotics on multidrug resistant bacteria, and use thereof” (priority 2016, dated 2022).
≈ marks a conversion by molar mass, not a printed value. Like-named read-outs stand apart in the source and are kept apart here. Where a SMILES comes first, the peptide text is derived from it. [ ]: non-standard residue; d: D form.

Key:
[1] = test system: MDRAB 12035; test: MIC of antibiotic during combined treatment with antimicrobial peptide; assay type: cell-based, Acinetobacter baumannii
Procedure, shortened: (§1)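 Broth microdilution in MH medium; strains were diluted to 2×10^6 CFU per ml before plating. Peptide was serially diluted stepwise at 2:1 starting from its MIC, and MH-diluted antibiotic was then added to determine MIC. The reversed arrangement was also tested.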

[2] = test system: E. coli; assay type: cell-based, Escherichia coli; details: E. coli
Procedure, shortened: as §1

[3] = test system: MDREC 1229; assay type: cell-based, Escherichia coli
Procedure, shortened: as §1

[4] = test system: P. aeruginosa; test: microbe, parasite or virus in culture; assay type: cell-based, Pseudomonas aeruginosa
Procedure, shortened: (§2)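 Broth microdilution in MH medium: strains diluted to 2×10^6 CFU were mixed with equal volumes of twofold serial peptide dilutions in MH medium. MIC was taken as the lowest peptide concentration preventing bacterial growth.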

[5] = test system: A. baumannii; test: MIC of antibiotic during combined treatment with antimicrobial peptide; assay type: cell-based, Acinetobacter baumannii; details: for Antibiotic MIC, Erythromycin / Antibiotic MIC, Linezolid / Antibiotic MIC, Vancomycin: A. baumannii
Procedure, shortened: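 First, antibiotic solution is diluted with MH medium; next, the dilution is dispensed into wells containing peptide; finally, the orientation is swapped and MIC of each mixture determined.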

[6] = test system: MDREC 1229; test: as above; assay type: cell-based, Escherichia coli
Procedure, shortened: as §1

[7] = test system: MDRAB 12036; assay type: cell-based, Acinetobacter baumannii
Procedure, shortened: as §2

[8] = test system: A. baumannii; test: MIC of antimicrobial peptide during combined treatment with antibiotic; assay type: cell-based, Acinetobacter baumannii
Procedure, shortened: as §1

[9] = test system: MDRAB 12035; test: as above; assay type: cell-based, Acinetobacter baumannii
Procedure, shortened: as §1

[10] = test system: MDRST 8009; assay type: cell-based, Salmonella typhimurium; details: agent alone
Procedure, shortened: as §2

[11] = test system: MDREC 1238; assay type: cell-based, Escherichia coli
Procedure, shortened: as §2

[12] = test system: S. epidermidis; test: microbe, parasite or virus in culture; assay type: cell-based, Staphylococcus epidermidis
Procedure, shortened: as §2

[13] = test system: MDRPA 2003; assay type: cell-based, Pseudomonas aeruginosa
Procedure, shortened: as §2

[14] = peptide treatment concentration 1 μg/ml
[15] = peptide treatment concentration 2 μg/ml
[16] = peptide treatment concentration 4 μg/ml
[17] = peptide treatment concentration 6 μg/ml
[18] = peptide treatment concentration 8 μg/ml
[19] = peptide treatment concentration 16 μg/ml
[20] = peptide treatment concentration 32 μg/ml
[21] = peptide treatment concentration 64 μg/ml
[22] = linezolid 64 μg/ml (Conc./MIC 1/8)
[23] = linezolid 512 μg/ml (Conc./MIC 1)
[24] = vancomycin 512 μg/ml (Conc./MIC 1/2)
[25] = vancomycin 1024 μg/ml (Conc./MIC 1)
[26] = combined with peptide at 1 μg/ml
[27] = combined with peptide at 2 μg/ml
[28] = combined with peptide at 4 μg/ml
[29] = combined with peptide at 6 μg/ml
[30] = combined with peptide at 8 μg/ml
[31] = combined with peptide at 16 μg/ml
[32] = combined with peptide at 32 μg/ml
[33] = combined with peptide at 64 μg/ml
[34] = erythromycin 4 μg/ml (Conc./MIC 1/8)
[35] = erythromycin 8 μg/ml (Conc./MIC 1/4)
[36] = erythromycin 16 μg/ml (Conc./MIC 1/2)
[37] = erythromycin 32 μg/ml (Conc./MIC 1)

CC[C@H](C)[C@H](NC(=O)[C@H](CCCCN)NC(=O)[C@H](Cc1c[nH]c2ccccc12)NC(=O)[C@@H](N)CCCNC(=N)N)C(=O)N[C@@H](Cc1ccccc1)C(=O)N[C@@H](CCCCN)C(=O)N[C@@H](CCCCN)C(=O)N[C@H](C(=O)N[C@H](CCCCN)C(=O)N[C@@H](CCCCN)C(=O)N[C@@H](CC(C)C)C(=O)N[C@@H](CC(C)C)C(=O)N[C@@H](Cc1c[nH]cn1)C(=O)N[C@@H](CCCCN)C(=O)N[C@@H](Cc1ccccc1)C(=O)N[C@@H](CCCCN)C(=O)N[C@@H](CCCCN)C(=O)N[C@@H](Cc1ccccc1)C(N)=O)[C@@H](C)CC [PapMA-17, RWK IFK KIk KLL HKF KKF-NH2] (H-RWKIFKKI[dK]KLLHKFKKF-NH2; N-terminus assumed)
Erythromycin MIC during combined treatment with peptide [1, 14]: 32 µg/mL
Linezolid MIC during combined treatment with peptide [1, 14]: >128 µg/mL
Vancomycin MIC during combined treatment with peptide [1, 14]: >128 µg/mL
Erythromycin MIC during combined treatment with peptide [1, 15]: 16 µg/mL
Linezolid MIC during combined treatment with peptide [1, 15]: 128 µg/mL
Vancomycin MIC during combined treatment with peptide [1, 15]: >128 µg/mL
Erythromycin MIC during combined treatment with peptide [1, 16]: 8 µg/mL
Linezolid MIC during combined treatment with peptide [1, 16]: 32 µg/mL
Vancomycin MIC during combined treatment with peptide [1, 16]: 128 µg/mL
Erythromycin MIC during combined treatment with peptide [1, 17]: 4 µg/mL
Linezolid MIC during combined treatment with peptide [1, 17]: 32 µg/mL
Vancomycin MIC during combined treatment with peptide [1, 17]: 32 µg/mL
Erythromycin MIC during combined treatment with peptide [1, 18]: 0.5 µg/mL
Linezolid MIC during combined treatment with peptide [1, 18]: 16 µg/mL
Vancomycin MIC during combined treatment with peptide [1, 18]: 16 µg/mL
Erythromycin MIC during combined treatment with peptide [1, 19]: 0.25 µg/mL
Linezolid MIC during combined treatment with peptide [1, 19]: 4 µg/mL
Vancomycin MIC during combined treatment with peptide [1, 19]: 8 µg/mL
Erythromycin MIC during combined treatment with peptide [1, 20]: 0 µg/mL
Linezolid MIC during combined treatment with peptide [1, 20]: 0 µg/mL
Vancomycin MIC during combined treatment with peptide [1, 20]: 0 µg/mL
Erythromycin MIC during combined treatment with peptide [1, 21]: 0 µg/mL
Linezolid MIC during combined treatment with peptide [1, 21]: 0 µg/mL
Vancomycin MIC during combined treatment with peptide [1, 21]: 0 µg/mL
Peptide MIC ([2]; with Erythromycin […] (Conc./MIC 1)): 0 µg/mL
Peptide MIC ([2]; with Linezolid […] (Conc./MIC 1)): 0 µg/mL
Peptide MIC ([2]; with Vancomycin 1024 μg/ml (Conc./MIC 1)): 0 µg/mL
Peptide MIC during treatment with antibiotic ([3]; erythromycin 32 μg/ml (Conc./MIC 1/8)): 2 µg/mL
Peptide MIC during treatment with antibiotic ([3]; erythromycin 64 μg/ml (Conc./MIC 1/4)): 2 µg/mL
Peptide MIC during treatment with antibiotic ([3]; erythromycin […] (Conc./MIC 1)): 0 µg/mL
Peptide MIC during treatment with antibiotic ([3]; erythromycin […] (Conc./MIC 1/2)): 2 µg/mL
Peptide MIC during treatment with antibiotic [3, 22]: 4 µg/mL
Peptide MIC during treatment with antibiotic [3, 23]: 0 µg/mL
Peptide MIC during treatment with antibiotic ([3]; linezolid […] (Conc./MIC 1/2)): 1 µg/mL
Peptide MIC during treatment with antibiotic ([3]; linezolid […] (Conc./MIC 1/4)): 4 µg/mL
Peptide MIC during treatment with antibiotic [3, 24]: 2 µg/mL
Peptide MIC during treatment with antibiotic [3, 25]: 1 µg/mL
Peptide MIC during treatment with antibiotic ([3]; vancomycin […] (Conc./MIC 1/4)): 4 µg/mL
Peptide MIC during treatment with antibiotic ([3]; vancomycin […] (Conc./MIC 1/8)): 8 µg/mL
Minimal inhibitory concentration MIC [4]: 16 µg/mL (≈ 6.62 µM)
Synergistic effect of antibacterial activity with existing antibiotics compared with PapMA-1 ([5]; A. baumannii and MDRAB 12035): level similar to that of PapMA-1 peptide
Antibiotic MIC, Erythromycin [5, 26]: 32 µg/mL
Antibiotic MIC, Linezolid [5, 26]: >128 µg/mL
Antibiotic MIC, Vancomycin [5, 26]: >128 µg/mL
Antibiotic MIC, Erythromycin [5, 27]: 16 µg/mL
Antibiotic MIC, Linezolid [5, 27]: 64 µg/mL
Antibiotic MIC, Vancomycin [5, 27]: >128 µg/mL
Antibiotic MIC, Erythromycin [5, 28]: 8 µg/mL
Antibiotic MIC, Linezolid [5, 28]: 32 µg/mL
Antibiotic MIC, Vancomycin [5, 28]: 64 µg/mL
Antibiotic MIC, Erythromycin [5, 29]: 2 µg/mL
Antibiotic MIC, Linezolid [5, 29]: 32 µg/mL
Antibiotic MIC, Vancomycin [5, 29]: 32 µg/mL
Antibiotic MIC, Erythromycin [5, 30]: 0.25 µg/mL
Antibiotic MIC, Linezolid [5, 30]: 8 µg/mL
Antibiotic MIC, Vancomycin [5, 30]: 16 µg/mL
Antibiotic MIC, Erythromycin [5, 31]: 0.125 µg/mL
Antibiotic MIC, Linezolid [5, 31]: 2 µg/mL
Antibiotic MIC, Vancomycin [5, 31]: 4 µg/mL
Antibiotic MIC, Erythromycin [5, 32]: 0 µg/mL
Antibiotic MIC, Linezolid [5, 32]: 0 µg/mL
Antibiotic MIC, Vancomycin [5, 32]: 0 µg/mL
Antibiotic MIC, Erythromycin [5, 33]: 0 µg/mL
Antibiotic MIC, Linezolid [5, 33]: 0 µg/mL
Antibiotic MIC, Vancomycin [5, 33]: 0 µg/mL
Antibiotic MIC, Erythromycin [6, 14]: >128 µg/mL
Antibiotic MIC, Linezolid [6, 14]: >128 µg/mL
Antibiotic MIC, Vancomycin [6, 14]: >128 µg/mL
Antibiotic MIC, Erythromycin [6, 15]: 32 µg/mL
Antibiotic MIC, Linezolid [6, 15]: >128 µg/mL
Antibiotic MIC, Vancomycin [6, 15]: >128 µg/mL
Antibiotic MIC, Erythromycin [6, 16]: 16 µg/mL
Antibiotic MIC, Linezolid [6, 16]: 64 µg/mL
Antibiotic MIC, Vancomycin [6, 16]: 64 µg/mL
Antibiotic MIC, Erythromycin [6, 17]: 8 µg/mL
Antibiotic MIC, Linezolid [6, 17]: 16 µg/mL
Antibiotic MIC, Vancomycin [6, 17]: 32 µg/mL
Antibiotic MIC, Erythromycin [6, 18]: 4 µg/mL
Antibiotic MIC, Linezolid [6, 18]: 16 µg/mL
Antibiotic MIC, Vancomycin [6, 18]: 16 µg/mL
Antibiotic MIC, Erythromycin [6, 19]: 0 µg/mL
Antibiotic MIC, Linezolid [6, 19]: 0 µg/mL
Antibiotic MIC, Vancomycin [6, 19]: 0 µg/mL
Antibiotic MIC, Erythromycin [6, 20]: 0 µg/mL
Antibiotic MIC, Linezolid [6, 20]: 0 µg/mL
Antibiotic MIC, Vancomycin [6, 20]: 0 µg/mL
Antibiotic MIC, Erythromycin [6, 21]: 0 µg/mL
Antibiotic MIC, Linezolid [6, 21]: 0 µg/mL
Antibiotic MIC, Vancomycin [6, 21]: 0 µg/mL
Minimal inhibitory concentration MIC [7]: 32 µg/mL (≈ 13.2 µM)
Peptide MIC during treatment with antibiotic [8, 34]: 4 µg/mL
Peptide MIC during treatment with antibiotic [8, 35]: 4 µg/mL
Peptide MIC during treatment with antibiotic [8, 36]: 2 µg/mL
Peptide MIC during treatment with antibiotic [8, 37]: 0 µg/mL
Peptide MIC during treatment with antibiotic ([8]; linezolid 32 μg/ml (Conc./MIC 1/8)): 4 µg/mL
Peptide MIC during treatment with antibiotic ([8]; linezolid 64 μg/ml (Conc./MIC 1/4)): 2 µg/mL
Peptide MIC during treatment with antibiotic ([8]; linezolid […] (Conc./MIC 1)): 0 µg/mL
Peptide MIC during treatment with antibiotic ([8]; linezolid […] (Conc./MIC 1/2)): 2 µg/mL
Peptide MIC during treatment with antibiotic [8, 24]: 0.25 µg/mL
Peptide MIC during treatment with antibiotic [8, 25]: 0 µg/mL
Peptide MIC during treatment with antibiotic ([8]; vancomycin […] (Conc./MIC 1/4)): 0.5 µg/mL
Peptide MIC during treatment with antibiotic ([8]; vancomycin […] (Conc./MIC 1/8)): 4 µg/mL
Peptide MIC during treatment with erythromycin [9, 34]: 4 µg/mL
Peptide MIC during treatment with erythromycin [9, 35]: 4 µg/mL
Peptide MIC during treatment with erythromycin [9, 36]: 2 µg/mL
Peptide MIC during treatment with erythromycin [9, 37]: 0 µg/mL
Peptide MIC during treatment with linezolid [9, 22]: 4 µg/mL
Peptide MIC during treatment with linezolid [9, 23]: 0 µg/mL
Peptide MIC during treatment with linezolid ([9]; linezolid […] (Conc./MIC 1/2)): 1 µg/mL
Peptide MIC during treatment with linezolid ([9]; linezolid […] (Conc./MIC 1/4)): 2 µg/mL
Peptide MIC during treatment with vancomycin [9, 24]: 2 µg/mL
Peptide MIC during treatment with vancomycin [9, 25]: 1 µg/mL
Peptide MIC during treatment with vancomycin ([9]; vancomycin […] (Conc./MIC 1/4)): 4 µg/mL
Peptide MIC during treatment with vancomycin ([9]; vancomycin […] (Conc./MIC 1/8)): 4 µg/mL
Minimal inhibitory concentration MIC [10]: 64 µg/mL (≈ 26.5 µM)
Minimal inhibitory concentration MIC [11]: 32 µg/mL (≈ 13.2 µM)
Minimal inhibitory concentration MIC [12]: >128 µg/mL
Minimal inhibitory concentration MIC [13]: 16 µg/mL (≈ 6.62 µM)
